From patent US5773569A (Affymax Technologies N.V., priority 1995, dated 1998)
Where two headings read alike, the source gives them in different places. Residues, ends and D or L forms follow the SMILES beside them.

Assays:
[1] = biological target: T1, PIG-tailed EPO-R immobilized on mAb179 (Homo sapiens, UniProt P19235); assay: PIG-tailed EPO-R radioligand competition binding assay; details: streptavidin 4:1 experiment; free peptide concentrations
T1 construct: comprised the extracellular domain of the EPO-receptor; thrombin cleavage site (internal); made in house
T1 sequence (P19235 25-250 limits assumed): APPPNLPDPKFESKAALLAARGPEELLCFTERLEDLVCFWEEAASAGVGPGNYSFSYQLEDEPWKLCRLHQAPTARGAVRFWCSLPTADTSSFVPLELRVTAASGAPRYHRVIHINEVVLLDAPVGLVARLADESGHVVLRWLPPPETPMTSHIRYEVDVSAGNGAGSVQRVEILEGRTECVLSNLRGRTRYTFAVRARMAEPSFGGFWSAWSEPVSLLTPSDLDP

[2] = biological target: T2, FDCP-1/hEPO-R cells (human EPO-R) (Homo sapiens, UniProt P19235); assay: cell-based
T2 sequence (P19235 25-508): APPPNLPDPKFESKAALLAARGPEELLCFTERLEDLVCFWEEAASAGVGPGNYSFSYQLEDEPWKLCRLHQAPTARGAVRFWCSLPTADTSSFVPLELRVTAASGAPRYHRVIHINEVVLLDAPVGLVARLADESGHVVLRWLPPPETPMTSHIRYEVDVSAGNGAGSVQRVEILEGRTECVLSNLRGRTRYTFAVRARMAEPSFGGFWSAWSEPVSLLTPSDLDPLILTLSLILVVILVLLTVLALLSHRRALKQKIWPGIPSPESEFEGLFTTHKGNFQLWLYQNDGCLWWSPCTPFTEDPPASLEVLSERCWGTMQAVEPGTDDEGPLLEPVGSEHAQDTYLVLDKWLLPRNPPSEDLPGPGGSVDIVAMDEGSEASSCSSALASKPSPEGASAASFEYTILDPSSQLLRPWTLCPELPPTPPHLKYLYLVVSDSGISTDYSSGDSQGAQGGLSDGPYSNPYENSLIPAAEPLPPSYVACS
Method: One assay utilized FDCP-1, a growth factor depenent murne multi-potential primitive hematopoietic progenitor cell line (see, e.g., Dexter et al. (1980) J. Exp. Med. 152:1036-1047), as the parental cell line. This cell line can proliferate, but not differentiate, when supplemented with WEHI3-conditioned media (a medium that contains IL-3, ATCC number T1B68).
In brief, the cells are grown to half stationary density in the presence of the necessary growth factors. The cells are then washed in PBS and starved for 16-24 hours in whole media without the growth factors. After determining the viability of the cells, stock solutions (in whole media without the growth factors) are made to give about 10^5 cells per 50 microliters. […] Cells (50 microliters) are added to each well and the cells are incubated 24-48 hours, at which point the negative controls should die or be quiescent. Cell proliferation is then measured by techniques known in the art, such as an MTT assay which correlates with ^3 H-thymidine incorporation as an indication of cell proliferation (see, Mosmann (1983) J. Immnunol. Methods 65:55).
In addition, this peptide was preincubated with streptavidin in serum-free HEPES-buffered RPMI at a 4:1 molar ratio, as above. The complex was tested for stimulation of cell proliferation in an FDCP-1/hEPO-R bioassay alongside. free […] […]

[3] = biological target: T3, murine receptor (FDC-P1/ER cells) (Mus musculus, UniProt P14753); assay: cell-based; details: IA = inactive
T3 sequence (P14753 25-507): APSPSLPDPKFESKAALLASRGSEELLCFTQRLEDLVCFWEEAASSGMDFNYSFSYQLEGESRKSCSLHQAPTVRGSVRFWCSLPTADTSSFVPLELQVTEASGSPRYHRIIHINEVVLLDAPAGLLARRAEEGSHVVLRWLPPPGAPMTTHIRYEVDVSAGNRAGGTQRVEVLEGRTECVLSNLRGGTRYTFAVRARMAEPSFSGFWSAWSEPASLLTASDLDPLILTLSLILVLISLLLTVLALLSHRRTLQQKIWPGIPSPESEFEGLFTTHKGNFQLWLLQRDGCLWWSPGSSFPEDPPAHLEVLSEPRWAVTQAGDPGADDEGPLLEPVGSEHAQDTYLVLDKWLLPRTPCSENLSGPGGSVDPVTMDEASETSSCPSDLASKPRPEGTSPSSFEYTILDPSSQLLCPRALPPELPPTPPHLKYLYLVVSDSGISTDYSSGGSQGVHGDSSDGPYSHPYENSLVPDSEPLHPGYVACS
Method: Sample Preparation: Peptides were resuspended in DMSO as a 1×10^-2 M stock solution and serially diluted in 10-fold increments to generate the following 100×solutions:
Two μl of each stock dilution was added to a cell well as described below in a total volume of 200 μl to generate final concentrations as follows:
(§1) Cells are harvested and resuspended in fresh medium without growth factor (erytiropoietin) for 24 hr. Cells are counted and resuspended at a concentration of 800,000 cells/ml. Approximately forty thousand cells (50μ) are added to each well of a 96 well microtiter plate. Peptide is added to each well in triplicate. A standard dose response determination is run with each series of peptides. After a forty-two hr incubation (≈2 doubling), each well is pulsed with 1 μCi/well Thymidine. Cells are incubated an additional six hr at which time cells are harvested and counted to assess thymidine incorporation as an indicator of cell proliferation.

[4] = biological target: T4, truncated human erythropoietin receptor cell line (Homo sapiens, UniProt P19235); assay: cell-based
T4 sequence (P19235 25-468 limits assumed): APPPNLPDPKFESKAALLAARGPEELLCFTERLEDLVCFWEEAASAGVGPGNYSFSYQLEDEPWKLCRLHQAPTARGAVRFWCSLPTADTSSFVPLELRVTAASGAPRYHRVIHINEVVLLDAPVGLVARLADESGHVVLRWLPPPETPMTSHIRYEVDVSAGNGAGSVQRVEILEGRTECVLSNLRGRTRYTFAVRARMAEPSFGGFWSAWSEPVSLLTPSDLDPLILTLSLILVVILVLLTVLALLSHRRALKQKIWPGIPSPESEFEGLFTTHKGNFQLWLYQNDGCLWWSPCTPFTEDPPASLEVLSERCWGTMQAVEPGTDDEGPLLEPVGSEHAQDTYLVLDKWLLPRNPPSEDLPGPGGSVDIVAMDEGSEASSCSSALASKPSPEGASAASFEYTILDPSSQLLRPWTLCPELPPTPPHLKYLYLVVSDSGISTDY
Method: as §1

[5] = biological target: T5, extracellular domain of the human erythropoietin receptor (EPO binding protein, EBP) (Homo sapiens, UniProt P19235); assay: Immobilized EBP based [125I]EPO competition binding assay; details: IC50 relative to RWJ61233 (IC50 5 μM); cyclic peptides, COOH terminal amides
T5 construct: made in house
T5 sequence (P19235 25-250 limits assumed): T1 sequence (P19235 25-250 limits assumed)
Method: The iodoacetyl activation chemistry of Sufolink beads (Pierce Chemical Co, Rockford, Ill.) is specific for free thiols and assures that the linkage is not easily reversible. EBP-Sulfolink beads were made as follows: SulfoLink gel suspension (10 ml) was mixed with coupling buffer (40 ml: 50 mM Tris, pH 8.3, 5 mM EDTA) and the gel was allowed to settle. The supernatant was removed and the EBP (0.3-1 mg/ml in coupling buffer) to be bound was added directly to the washed beads. The mixture was rocked gently for 30 minutes at room temperature, and the beads were allowed to settle for 1 hour at room temperature. […] The amount of EBP which was covalently bound to the beads was determined by comparing the OD280 of the original EBP solution to the total OD280 recovered in the reaction supernatant and the two 20 ml washes.
Binding assays were initiated by the addition of EBP beads (50 μl) to individual reaction tubes. […] The tubes were incubated for five hours (a time period experimentally determined as adequate for the establishment of equilibrium) at room temperature with gentle rocking. […]
Competitive binding analysis assays of candidate peptides were performed as outlined below. […] The columns containing the washed beads were placed in 12×75 mm glass tubes and bound radioactivity levels were determined using a gamma counter.

[6] = EPO-ED50 (μM), Tables 17-19, amount for half maximal level of EPO dependent proliferation
[7] = EPO-ED50 (μM)* murine receptor, Tables 20-21

Compound	EC50 [3, 6] [µM]	EC50 [4] [nM]	EC50 [3, 7] [µM]	Relative Binding [5]	also measured
CC(C)C[C@@H]1NC(=O)[C@@H]2CCCN2C(=O)CNC(=O)[C@H](Cc2ccccc2)NC(=O)[C@H](Cc2c[nH]cn2)NC(=O)[C@@H](NC(=O)[C@H](CO)NC(=O)[C@H](Cc2ccc(O)cc2)NC(=O)[C@@H](NC(=O)CNC(=O)CN)[C@@H](C)O)CSSC[C@@H](C(=O)N[C@@H](CCCCN)C(=O)N2CCC[C@H]2C(=O)N[C@@H](CCC(N)=O)C(=O)NCC(=O)NCC(=O)N[C@@H](CO)C(=O)N[C@@H](CO)C(=O)N[C@@H](CCCCNC(=O)CCCCCNC(=O)CCCC[C@@H]2SC[C@@H]3NC(=O)N[C@@H]32)C(N)=O)NC(=O)[C@H](C(C)C)NC(=O)[C@H](Cc2c[nH]c3ccccc23)NC(=O)[C@H]([C@@H](C)O)NC1=O (HELM PEPTIDE1{G.G.T.Y.S.C.H.F.G.P.L.T.W.V.C.K.P.Q.G.G.S.S.K.[am]}|PEPTIDE2{[O=C1N[C@H]2[C@H](CS[C@H]2CCCCC(=O)[*:2])N1].[O=C(CCCCCN[*:1])[*:2]]}$PEPTIDE1,PEPTIDE2,23:R3-2:R2|PEPTIDE1,PEPTIDE1,6:R3-15:R3$$$V2.0; N-terminus and C-terminus assumed)	–	–	–	–	IC50 [1]: 350 nM
CC(C)C[C@@H]1NC(=O)[C@@H]2CCCN2C(=O)CNC(=O)[C@H](Cc2ccccc2)NC(=O)[C@H](Cc2c[nH]cn2)NC(=O)[C@@H](NC(=O)[C@H](CO)NC(=O)[C@H](Cc2ccc(O)cc2)NC(=O)[C@@H](NC(=O)CNC(=O)CN)[C@@H](C)O)CSSC[C@@H](C(=O)N[C@@H](CCCCN)C(=O)N2CCC[C@H]2C(=O)N[C@@H](CCC(N)=O)C(=O)NCC(=O)NCC(N)=O)NC(=O)[C@H](C(C)C)NC(=O)[C@H](Cc2c[nH]c3ccccc23)NC(=O)[C@H]([C@@H](C)O)NC1=O [RWJ 61233] (HELM PEPTIDE1{G.G.T.Y.S.C.H.F.G.P.L.T.W.V.C.K.P.Q.G.G.[am]}$PEPTIDE1,PEPTIDE1,6:R3-15:R3$$$V2.0)	0.1	100	–	–	EC50 [2]: 400 nM; EC50 ([2]; EPO-ED50, FIG. 10): ~1000 nM
CC(C)C[C@@H]1NC(=O)[C@@H]2CCCN2C(=O)CNC(=O)[C@H](Cc2ccccc2)NC(=O)[C@H](Cc2c[nH]cn2)NC(=O)[C@@H](NC(=O)[C@H](CO)NC(=O)[C@H](Cc2ccc(F)cc2)NC(=O)[C@@H](NC(=O)CNC(=O)CN)[C@@H](C)O)CSSC[C@@H](C(=O)N[C@@H](CCCCN)C(=O)N2CCC[C@H]2C(=O)N[C@@H](CCC(N)=O)C(=O)NCC(=O)NCC(N)=O)NC(=O)[C@H](C(C)C)NC(=O)[C@H](Cc2c[nH]c3ccccc23)NC(=O)[C@H]([C@@H](C)O)NC1=O [RWJ 62020, GGTXSCHFGPLTWVCKPQGG] (HELM PEPTIDE1{G.G.T.[O=C([C@H](Cc1ccc(F)cc1)N[*:1])[*:2]].S.C.H.F.G.P.L.T.W.V.C.K.P.Q.G.G.[am]}$PEPTIDE1,PEPTIDE1,6:R3-15:R3$$$V2.0)	–	100	1	–	–
CC(C)C[C@@H]1NC(=O)[C@@H]2CCCN2C(=O)CNC(=O)[C@H](Cc2ccccc2)NC(=O)[C@H](Cc2c[nH]cn2)NC(=O)[C@@H](NC(=O)[C@H](CO)NC(=O)[C@H](Cc2ccc(O)cc2)NC(=O)[C@@H](NC(=O)CNC(=O)CN)[C@@H](C)O)CSSC[C@@H](C(=O)N[C@@H](CCCCN)C(=O)N2CCC[C@H]2C(=O)N[C@@H](CCC(N)=O)C(=O)NCC(=O)NCC(N)=O)NC(=O)[C@H](C(C)C)NC(=O)[C@H](Cc2ccccc2)NC(=O)[C@H]([C@@H](C)O)NC1=O [RWJ 62145] (HELM PEPTIDE1{G.G.T.Y.S.C.H.F.G.P.L.T.F.V.C.K.P.Q.G.G.[am]}$PEPTIDE1,PEPTIDE1,6:R3-15:R3$$$V2.0)	0.25	500	–	–	–
CC(=O)NCC(=O)NCC(=O)N[C@H](C(=O)N[C@@H](Cc1ccc(O)cc1)C(=O)N[C@@H](CO)C(=O)N[C@H]1CSSC[C@@H](C(=O)N[C@@H](CCCCN)C(=O)N2CCC[C@H]2C(=O)N[C@@H](CCC(N)=O)C(=O)NCC(=O)NCC(N)=O)NC(=O)[C@H](C(C)C)NC(=O)[C@H](Cc2c[nH]c3ccccc23)NC(=O)[C@H]([C@@H](C)O)NC(=O)[C@H](CC(C)C)NC(=O)[C@@H]2CCCN2C(=O)CNC(=O)[C@H](Cc2ccccc2)NC(=O)[C@H](Cc2c[nH]cn2)NC1=O)[C@@H](C)O [RWJ 62146] (HELM PEPTIDE1{[ac].G.G.T.Y.S.C.H.F.G.P.L.T.W.V.C.K.P.Q.G.G.[am]}$PEPTIDE1,PEPTIDE1,7:R3-16:R3$$$V2.0)	–	60	0.03	4	–
RWJ 61721 (GGTYSEHFGPLTWVKKPQGG)	–	–	–	> 100	–
